Assay results: US20120295893A1, “COMPOSITIONS AND METHODS OF COUNTERACTING RESIDUAL SEDATIVE EFFECTS OF SLEEP/ HYPNOTIC DRUGS” (COERULEUS LTD., priority 2009, published 2012)
Converted amounts (≈) assume the structure as drawn. “Also recorded” adds a separate entry of the source. Read-outs that look alike come from different tables or passages of the source.

Legend:
[1] = Passive transdermal paper feasibility (3M empirical model)
Experimental: The feasibility of transdermal delivery was evaluated for flumazenil and zolpidem. The target transdermal dose for flumazenil used in this assessment was 0.6 mg/hr.
This study addresses the feasibility of passively delivering a drug from a transdermal patch based on requirements specified for flumazenil and thereby provides evaluation of drug diffusion across the skin at a feasible rate. […] The assessment involves first qualitatively assessing the physicochemical properties and target transdermal dose of the drug by comparing them to the properties of an ideal passive transdermal drug.
This maximum limit is defined empirically by a 3M model, which can be used to estimate the largest flux and minimum patch size of the proposed drug product.
The target transdermal flux is calculated by dividing the target transdermal dose by the patch area. Using Fick's Law of Diffusion, the steady-state transdermal flux (μg/cm^2/hr) of a drug across the stratum corneum, j, is described by Equation 1: […]
where D is the diffusion coefficient of the drug in the stratum corneum (cm^2/hr), 1 is the thickness of the stratum corneum, P is the permeability coefficient (cm/hr), and Δc is the drug's concentration gradient across the stratum corneum (μg/mL), which is commonly approximated in the literature, under infinite sink conditions, by the drug's solubility in octanol (coct).
The target drug flux is estimated by dividing the target daily transdermal dose (mg/day) by the target patch size (cm^2). If the target patch size is not defined, then a value of 40 cm^2 is used. Then, using equation (1), the target permeability coefficient can be estimated by dividing the target drug flux by the drug's solubility in octanol.

[2] = tested on: sleep/hypnotic effect of zolpidem or brotizolam; test: Clinical study: Profile Of Mood States (POMS) Brief form
[3] = Clinical study: vital signs and safety assessments
[4] = tested on: sleep/hypnotic effect of zolpidem or brotizolam; test: Clinical study: immediate Word Recall Test (iWRT)
[5] = tested on: sleep/hypnotic effect of zolpidem or brotizolam; test: Clinical study: Visual Analogue Scale (sleepiness/vigilance, ability to focus, effectiveness)
[6] = Gel electrophoresis migration in agarose gel; format: physicochemical; details: pH 4.5 compared with pH 5.5 and 7.2; 0.66 mg/ml, 1% gel, positive electrode
Experimental: The following parameters were applied in order to evaluate migration in agarose gel (1%; 3 mm thick):
Total Width: 15.5 cm; Length: 15 cm; No of Lanes: 4; No of sections: 10; Buffer solution used: TAE (Tris […], Acetic acid, EDTA); Well vol: 10 ul/well; Voltage used: 50V-100V DC; and Run Time: 1 hr.
1. 0.66 mg/ml flumazenil pH 4.5—Positive Electrode 2. 0.66 mg/ml flumazenil pH 5.5—Positive Electrode 3. 0.66 mg/ml flumazenil in tween80 pH 7.2—Positive Electrode

[7] = cited from earlier work
[8] = tested on: sleep/hypnotic effect of zolpidem or brotizolam; test: Clinical study: overall response in performance tasks, flumazenil versus placebo
[9] = cited from earlier work; remark: listed apart in the source
[10] = tested on: sleep/hypnotic effect of zolpidem or brotizolam; test: Clinical study: digit symbol substitution test (DSST)
[11] = high dose FLUMUP 1.6 mg, 10 participants
[12] = N = 20, sublingual 0.4 mg or 1.6 mg, change from post-hypnotic baseline

With CCOC(=O)c1ncn2c1CN(C)C(=O)c1cc(F)ccc1-2 [Flumazenil, ethyl 8-fluoro-5,6-dihydro-5-methyl-6-oxo-4H-imidazo[1,5-a] [1,4]benzodiazepine-3-carboxylate] the “log P vs. Ideal transdermal drug (1 to 3)” value [1] was “+”, the “Ionization vs. Ideal transdermal drug (Neutral)” value ([1]; Table 20A) was “+” and the “Ionization vs. Ideal transdermal drug (Neutral)” value ([1]; Table 21) was “+”. The “POMS- fatigue, Δ parameter 20 min aft spray” value ([2]; N = 20, 0.4 or 1.6 mg) was −3.7 ± 0.9, the “POMS- fatigue, Δ parameter 60 min aft spray” value ([2]; N = 20, 0.4 or 1.6 mg) was −5.5 ± 1.0 and the “POMS-Alertness, Δ parameter 20 min aft spray” value ([2]; N = 20, 0.4 or 1.6 mg) was 3.5 ± 0.9. For the same compound, the “POMS-Alertness, Δ parameter 60 min aft spray” value ([2]; N = 20, 0.4 or 1.6 mg) was 5.3 ± 1.2, the “POMS- (first POMS line, r13), % difference Flum vs. P” value [2, 11] was 72% and the “POMS- (first POMS line, r13), Δ parameter 20 min aft spray” value [2, 11] was −5.8 ± 1.6. The “POMS- (first POMS line, r13), Δ parameter 60 min aft spray” value [2, 11] was −8.2 ± 1.6, the “POMS- (second POMS line, r14), % difference Flum vs. P” value [2, 11] was 93% and the “POMS- (second POMS line, r14), Δ parameter 20 min aft spray” value [2, 11] was 4.3 ± 1.5. For the same compound, the “POMS- (second POMS line, r14), Δ parameter 60 min aft spray” value [2, 11] was 7.2 ± 2.0, the “Diastolic BP, Δ parameter 20 min aft spray” value ([3]; N = 20, 0.4 or 1.6 mg) was −0.5 ± 1.5 and the “Diastolic BP, Δ parameter 60 min aft spray” value ([3]; N = 20, 0.4 or 1.6 mg) was −2.3 ± 1.2. The “Systolic BP, Δ parameter 20 min aft spray” value ([3]; N = 20, 0.4 or 1.6 mg) was −5.5 ± 2.3, the “Systolic BP, Δ parameter 60 min aft spray” value ([3]; N = 20, 0.4 or 1.6 mg) was −6.1 ± 2.7 and the “Pulse, Δ parameter 20 min aft spray” value [3, 12] was −2.9 ± 1.3. For the same compound, the “Pulse, Δ parameter 60 min aft spray” value [3, 12] was −3.4 ± 1.6, the “complaints of unusual sensation, pain, nausea, abdominal pain or other side effect” value ([3]; both doses of flumazenil, n=20) was “None of the participants complained” and the “Diastolic BP, % difference Flum vs. P” value [3, 11] was 70%. The “Diastolic BP, Δ parameter 20 min aft spray” value [3, 11] was −2.0 ± 1.9, the “Diastolic BP, Δ parameter 60 min aft spray” value [3, 11] was −2.6 ± 1.8 and the “Pulse, % difference Flum vs. P” value [3, 11] was 8%. The “Pulse, Δ parameter 60 min aft spray” value [3, 11] was −1.2 ± 2.7, the “Systolic BP, % difference Flum vs. P” value [3, 11] was 59% and the “Systolic BP, Δ parameter 20 min aft spray” value [3, 11] was −4.7 ± 3.5. For the same compound, the “Systolic BP, Δ parameter 60 min aft spray” value [3, 11] was −1.7 ± 4.2, the “Pulse, Δ parameter 20 min aft spray” value ([3]; high dose FLUMUP 1.6 mg, 10 participants, doubled hypnotic dose) was −0.4 ± 1.9 and the “vital signs (pulse, respiration), temperature and blood pressure” value ([3]; sublingual 0.4 mg and 1.6 mg, n=20) was “within normal values”. For the same compound, the “physical, neurological, mouth and buccal, cardiac and lung examination, ECG” value ([3]; sublingual 0.4 mg and 1.6 mg, with respect to placebo, n=20) was “not adversely affected”, the “iWRT, Δ parameter 20 min aft spray” value ([4]; N = 20, 0.4 or 1.6 mg) was 4.2 ± 0.8 and the “iWRT, Δ parameter 60 min aft spray” value ([4]; N = 20, 0.4 or 1.6 mg) was 5.4 ± 1.1. The “iWRT, % difference Flum vs. P” value [4, 11] was 92%, the “iWRT, Δ parameter 20 min aft spray” value [4, 11] was 5.5 ± 0.9 and the “iWRT, Δ parameter 60 min aft spray” value [4, 11] was 6.1 ± 1.2. For the same compound, the “Effectiveness, Δ parameter 20 min aft spray” value ([5]; N = 20, 0.4 or 1.6 mg) was 2.9 ± 0.6, the “Effectiveness, Δ parameter 60 min aft spray” value ([5]; N = 20, 0.4 or 1.6 mg) was 4.5 ± 0.6 and the “Focus Ability, Δ parameter 20 min aft spray” value ([5]; N = 20, 0.4 or 1.6 mg) was 2.7 ± 0.5. For the same compound, the “Focus Ability, Δ parameter 60 min aft spray” value ([5]; N = 20, 0.4 or 1.6 mg) was 4.3 ± 0.6, the “Vigilance, Δ parameter 20 min aft spray” value ([5]; N = 20, 0.4 or 1.6 mg) was 3.0 ± 0.6 and the “Vigilance, Δ parameter 60 min aft spray” value ([5]; N = 20, 0.4 or 1.6 mg) was 4.7 ± 0.6. For the same compound, the “Effectivenes, % difference Flum vs. P” value [5, 11] was 61%, the “Effectivenes, Δ parameter 20 min aft spray” value [5, 11] was 3.8 ± 0.7 and the “Effectivenes, Δ parameter 60 min aft spray” value [5, 11] was 5.5 ± 0.7. The “Focus Ability, % difference Flum vs. P” value [5, 11] was 59%, the “Focus Ability, Δ parameter 20 min aft spray” value [5, 11] was 3.7 ± 0.7 and the “Focus Ability, Δ parameter 60 min aft spray” value [5, 11] was 5.8 ± 0.8. For the same compound, the “Vigilance, % difference Flum vs. P” value [5, 11] was 69%, the “Vigilance, Δ parameter 20 min aft spray” value [5, 11] was 3.6 ± 0.8 and the “Vigilance, Δ parameter 60 min aft spray” value [5, 11] was 5.8 ± 0.8. For the same compound, the “migration in agarose gel” value [6] was “most efficient”, the effective plasma level ([7]; for IV 0.2 mg) was 5 to 20 ng/mL and the “time to peak plasma level” value ([7]; from the oral administration) was 20 to 90 min. For the same compound, the “plasma half life time” value ([7]; in vivo) was 7 to 15 min, the protein binding ([7]; in vivo) was 40% and the volume distribution ([7]; in vivo) was 0.63 to 1.6 L/kg. For the same compound, the onset of action ([7]; intravenous) was “few seconds to two minutes”, the “time of peak effect post administration” value ([7]; intravenous) was “six to ten minutes” and the bioavailability ([7]; oral delivery, high hepatic elimination) was 16%. For the same compound, the plasma level ([7]; oral dose of 200-600 mg) was 143 to 439 ng/mL, the “difference between flumazenil and placebo, low dose” value ([8]; first 10 subjects, flumazenil 0.4 mg, brotizolam 0.25 mg or zolpidem 10 mg) was “no significant differences; also recorded: could not be better reversed” and the “response: differences between flumazenil and placebo” value ([8]; last 10 participants, flumazenil 1.6 mg, doubled hypnotic dose) was “over 30%”. The “duration of effect following administration” value ([8]; sublingual spray) was “at least 60 min”, the “start of effect following administration” value ([8]; sublingual spray) was no more than 20 min and the pKa ([9]; SciFinderScholar) was 1.14±0.2. The Ionization ([9]; Table 20A) was “Neutral”, the “log P” value ([9]; Table 20A) was 1 and the Ionization ([9]; Table 21) was “Neutral”. The “solubility (in words)” value [9] was “sparingly soluble”, the “solubility in Propylene glycol, PEG 300 and PEG 400” value [9] was roughly 23 mM (≈ 6980 µg/mL) and the “solubility in pure ethanol” value ([9]; maximum) was roughly 33 mM (≈ 10000 µg/mL). The pKa ([9]; product information) was 1.78, the “DSST, Δ parameter 20 min aft spray” value ([10]; N = 20, 0.4 or 1.6 mg) was 17.7 ± 2.3 and the “DSST, Δ parameter 60 min aft spray” value ([10]; N = 20, 0.4 or 1.6 mg) was 22.4 ± 3.0. The “DSST, % difference Flum vs. P” value [10, 11] was 92%, the “DSST, Δ parameter 20 min aft spray” value [10, 11] was 23.2 ± 3.4 and the “DSST, Δ parameter 60 min aft spray” value [10, 11] was 30.4 ± 3.6.
